In patent publication US20220313600A1, “FORMULATIONS OF PSMA IMAGING AGENTS” (Clarity Pharmaceuticals Limited, priority 2019, published 2022):

Columns and labels:
[1] = Stability of the compound of Formula (I) formulated as an aqueous solution; format: physicochemical
Excerpt: One approach to overcome the observed instability may be to add one or more components that are antioxidants and/or stabilizing agents to the formulation, however the inclusion of further components to a formulation introduces potential reactivity issues between the compound of Formula (I) and these added components. For instance, the addition of an antioxidant may in fact react with the compound of Formula (I) thus potentially changing the structure and function of the compound, which is undesirable.

[2] = Degradation of the compound of Formula (I) when the radiolabelling mixture is mixed at raised temperature; format: physicochemical; conditions: temperatures higher than about 40° C., for example 60° C.; mixture with Cu radioisotope and acetate buffer
Excerpt: The solution comprising the mixture of the Cu radioisotope, the compound of Formula (I) and the acetate buffer is then allowed to mix for a time and at a particular temperature in order to allow for complexation of the compound of Formula (I) with the Cu radioisotope. The solution may be mixed using an appropriate apparatus. For example, given the small volumes used, an Eppendorf tube may be an appropriate vessel, such that an Eppendorf Thermomixer may be used to both mix and if required, heat the solution. In an embodiment, the solution is mixed at room temperature. In an embodiment, the solution is mixed at about 40° C. […] While a lower temperature of about 21° C., i.e. room temperature, may be used for mixing, the complexation reaction may not be complete at 5 minutes but is completed by about 15 minutes. […] In an embodiment, the solution is mixed at about 40° C. for about 5 minutes. In an embodiment, the solution is mixed at about 40° C. for about 10 minutes. In another embodiment, the solution is mixed at about 40° C. for about 15 minutes. In another embodiment, the solution is mixed at about 21° C. for about 10 minutes. In another embodiment, the solution is mixed at about 21° C. for about 15 minutes.

SMILES: O=C(O)CCC(NC(=O)NC(CCCCNC(=O)CCCCCCCNC(=O)C(Cc1ccccc1)NC(=O)C(Cc1ccccc1)NC(=O)CCCC(=O)NC12CNCCNCC(NC(=O)CCCC(=O)NC(Cc3ccccc3)C(=O)NC(Cc3ccccc3)C(=O)NCCCCCCCC(=O)NCCCCC(NC(=O)NC(CCC(=O)O)C(=O)O)C(=O)O)(CNCCNC1)CNCCNC2)C(=O)O)C(=O)O (stereo not drawn) [Formula (I), Sar-bisPSMA]
- stability of the compound in aqueous solution ([1]; formulated as an aqueous solution, no buffer or stabilizing agent): relatively unstable and prone to oxidation and degradation
- stability of the compound in a formulation containing a buffer ([1]; formulation containing a buffer, in the absence of a stabilizing agent): requisite stability
- degradation of the compound on heating [2]: some degradation
